Measurements published in US11447486B2, “2-amino-benzimidazole derivatives and their use as 5-lipoxygenase and/or prostaglandin E synthase inhibitors” (INSTITUT PASTEUR KOREA, priority 2014, dated 2022).

Assays:
Rat whole blood (RWB) = assay: LTB4 secretion assay in RWB (rat whole blood); format: cell-based; details: Rattus norvegicus
Method in brief: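 LTB4 release was measured by EIA in supernatants of pooled, sodium heparin rat blood (male Sprague Dawley, 6-9 weeks) diluted 1:1 with RPMI. Compounds (2.5 nM to 50 uM) were added 15 min before A23187 (10 uM final), with 10 min stimulation at 37 °C before ice-cold PBS quench.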

human 5-LOX = biological target: T1, human 5-LOX (Homo sapiens, UniProt P09917); assay: 5-LOX enzyme activity, fluorescence method (5-HPETE, H2DCFDA); format: biochemical; details: read-out: 5-LO (IC50)
T1 construct: purchased Cayman 60402; host or cells: insect cells (lysate)
T1 sequence (P09917 1-674): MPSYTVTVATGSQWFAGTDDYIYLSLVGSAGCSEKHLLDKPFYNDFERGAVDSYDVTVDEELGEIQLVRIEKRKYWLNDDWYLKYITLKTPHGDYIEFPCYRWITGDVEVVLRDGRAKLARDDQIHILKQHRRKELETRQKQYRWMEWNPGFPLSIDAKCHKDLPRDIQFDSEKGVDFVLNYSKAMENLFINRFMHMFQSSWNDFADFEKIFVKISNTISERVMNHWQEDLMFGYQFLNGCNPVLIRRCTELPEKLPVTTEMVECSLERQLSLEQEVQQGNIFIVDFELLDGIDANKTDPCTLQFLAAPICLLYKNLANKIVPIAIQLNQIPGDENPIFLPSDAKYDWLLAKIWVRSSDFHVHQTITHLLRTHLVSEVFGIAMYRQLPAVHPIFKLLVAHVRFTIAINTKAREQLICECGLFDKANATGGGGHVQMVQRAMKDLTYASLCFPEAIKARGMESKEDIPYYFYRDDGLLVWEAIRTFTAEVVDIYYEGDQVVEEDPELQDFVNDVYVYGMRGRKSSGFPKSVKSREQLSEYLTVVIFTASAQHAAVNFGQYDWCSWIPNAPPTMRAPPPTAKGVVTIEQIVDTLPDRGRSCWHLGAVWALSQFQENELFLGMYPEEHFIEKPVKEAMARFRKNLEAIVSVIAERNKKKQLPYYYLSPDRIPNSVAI
Method in brief: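 Fluorescence-based read-out, run entirely at room temperature. Enzyme mixture was exposed to a dose range of compound from 0.5 nM to 10 uM for 5 min before ATP and arachidonic acid were added to final levels of 100 uM and 3 uM.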

HeLa S3 cells = assay: PGE2 inhibition assay (HTRF) in TNF-α stimulated HeLa S3 cells; format: cell-based; details: Homo sapiens; PGE2, 10 uM compound, HeLa S3 stimulated with TNF-α
Protocol: Human epitheloid cervix carcinoma HeLa S3 cells (2×10^6cells/ml) were seeded with modified F-12K buffer medium pH 7.4 in tissue culture plate and incubated for overnight at 37° C. and 5% CO2. Then medium was changed into new medium contained 10 uM testing compounds or 0.1% DMSO and incubated overnight. After incubation, cells were stimulated with 30 nM TNF-α (Tumor necrosis factor-α) for 16 h. For determination of PGE2, the supernatant was measured by PGE2 HTRF (Homogeneous Time Resolved Fluorescence) assay kit Inhibition of PGE2 by compounds is calculated as a percentage of activity in the presence of drug versus the activity in the stimulator TNF-α.

[1] = tested on: Rat basophilic leukemia (RBL) cells; assay: LTB4 secretion assay in RBL (rat basophilic leukemia cells); format: cell-based; details: Rattus norvegicus, RBL
Method in brief: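 LTB4 released into supernatant was measured by EIA after 10 min at 37 °C with arachidonic acid (2.5 uM final) and calcium ionophore A23187 (5 uM final). Before stimulation, cells plated 2×10^4/well overnight received compound doses (5 nM to 100 uM) for 15 min in 0.5% FBS medium.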

[2] = biological target: T2, Human recombinant cyclooxygenase-2 (Homo sapiens, UniProt P35354); assay: COX-2 inhibition assay (EIA); format: biochemical; details: for inhibition at 10 µM: COX-2, 10 uM compound; for inhibitory effect on cyclooxygenase-2 (COX-2): tested at 10 uM
T2 construct: host or cells: insect Sf21 cells
T2 sequence (P35354 18-604): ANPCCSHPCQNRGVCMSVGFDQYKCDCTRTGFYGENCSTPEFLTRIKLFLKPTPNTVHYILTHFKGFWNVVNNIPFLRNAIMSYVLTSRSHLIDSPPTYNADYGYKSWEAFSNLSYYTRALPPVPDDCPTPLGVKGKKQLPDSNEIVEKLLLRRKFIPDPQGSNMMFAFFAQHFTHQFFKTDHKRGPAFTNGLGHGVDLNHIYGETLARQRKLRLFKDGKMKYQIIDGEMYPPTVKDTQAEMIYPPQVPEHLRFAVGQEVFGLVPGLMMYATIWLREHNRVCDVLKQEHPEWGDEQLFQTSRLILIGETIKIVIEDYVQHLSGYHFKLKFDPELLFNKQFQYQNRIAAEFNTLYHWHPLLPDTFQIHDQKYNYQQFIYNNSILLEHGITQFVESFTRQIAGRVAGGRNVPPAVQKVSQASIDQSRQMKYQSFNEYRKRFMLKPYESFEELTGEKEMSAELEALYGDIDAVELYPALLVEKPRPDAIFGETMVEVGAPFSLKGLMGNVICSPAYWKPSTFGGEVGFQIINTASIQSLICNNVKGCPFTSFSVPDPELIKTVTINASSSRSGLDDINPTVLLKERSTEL
Protocol: Human recombinant cyclooxygenase-2 expressed in insect Sf21 cells was used. The testing compounds and reference compound (Rofecoxib) were dissolved in DMSO (Sigma, USA) and tested at 10 uM. Test samples were pre-incubated with 0.11 U enzyme in 100 mM modified Tris-HCl buffer pH 7.7 for 15 minutes at 37° C. The reactions were initiated by addition of 0.3 μM arachidonic acid for another 5-minute incubation period, then terminated by further addition of 1 N HCl. An aliquot was then combined with the EIA kit for spectrophotometric determination of the quantity of PGE2 formed. Inhibition % was determined by compared with relative amounts of PGE2 induced by arachidonic acid.

Brown Norway rats = assay: OVA-induced airway inflammation model in Brown Norway rats; format: in vivo, rat; details: 25, 50, 100 mg/kg p.o. BID, Day 19-21
Source text: The objective of this study is to determine the efficacy of compounds in the lungs of ovalbumin (OVA) induced in Brown Norway rats. As with most models of induced allergic asthma, animals are systemically sensitized to specific antigens and then, after a period of time, challenged with the same allergen administered via the airway. Ovalbumin had been used as the standard allergen to sensitize and challenge animals in this study.
Thirty (30) male Brown Norway rats were randomized into 5 groups on the basis of body weight. For sensitization, 1% OVA in PBS solution was mixed with alum solution (with volume ratio of 1:9). All rats in groups 1-5 were sensitized by i.p injection (1 mL/rat) of 1% OVA-alum sensitization solution on day 1, 2 and 3. At day 21, rats in groups 1-5 were challenged with 1% OVA in PBS solution with aerosolizing dosing system for 20 min.
Test compounds were administered by p.o. from days 19-21 of the study as per schedule below:
Group 1: sensitized-vehicle,
Group 2: reference drug dexamethasone, 0.3 mg/kg, p.o., Day 19-21, BID,
Group 3: compound 211, 25 mg/kg, p.o., Day 19-21, BID,
Group 4: compound 211, 50 mg/kg, p.o., Day 19-21, BID,
Group 5: compound 211, 100 mg/kg, p.o., Day 19-21, BID,
On day 22, bronchoalveolar lavage and lung tissues were harvested. Total cell number and differential cell counts in BALF, leukotriene B4 (LTB4) in BALF and lung tissue, histopathology of lung by H&E staining will be evaluated.

[3] = biological target: T3, Human 5-lipoxygenase (5-LOX) (Homo sapiens, UniProt P09917); assay: 5-LOX enzyme activity, LTB4 measurement by ELISA; format: biochemical; details: ELISA method; read-out: 5LO (IC50)
T3 construct: purchased Cayman 60402; host or cells: insect cells
T3 sequence (P09917 1-674): T1 sequence (P09917 1-674)
Protocol: The activity of compounds against 5-LOX were determined by measuring LTB4 (leukotriene B4) levels and/or by a fluorescence method. Both approaches are outlined in more detail below;
LTB4 Measurement by ELISA:
Human 5-lipoxygenase (5-LOX) (Cayman, Cat #60402) produced in insect cells was pre-incubated with compounds for 5 min at RT in incubation buffer (50 mM Tris-Cl, pH 7.4, 2 mM CaCl2, 0.1 mM ATP, 2% DMSO). Compounds were tested in dose reponse from 0.5 nM to 10 uM. The enzymatic reaction was started by adding arachidonic acid to a final concentration of 3 uM. After 5 min of incubation at 25° C., the reaction was stopped by adding H2O2 to a final concentration of 1 mM. LTB4 levels were quantified using a LTB4 EIA kit (Cayman, Cat #520111) as instructed.

Structure (SMILES) | EC50 (Rat whole blood (RWB)) [µM] | IC50 (human 5-LOX) [µM] | inhibition at 10 µM (HeLa S3 cells) [%] | melting point [°C] | EC50 [1] [µM] | inhibition at 10 µM [2] [%] | inhibitory effect on cyclooxygenase-2 (COX-2) [2] | LTB4 in BALF and Lung (Brown Norway rats) | increase of inflammatory cells including total cell and eosinophils (Brown Norway rats; BALF) | inflammation cell infiltration (Brown Norway rats; lung histopathology) | IC50 [3] [µM]
Nc1ccc2[nH]c(NCc3cccc4ccccc34)nc2c1 [Compound 91] | 10 to 20 | < 1 | > 70 | > 107.8 | < 10 | – | – | – | – | – | –
Nc1ccc2[nH]c(NCc3ccc(-c4ccccc4)cc3)nc2c1 [Compound 90] | 10 to 20 | < 1 | > 70 | > 200 | < 10 | < 1 | do not have an inhibitory effect | – | – | – | –
Nc1ccc2[nH]c(NCc3cccc(Oc4ccccc4)c3)nc2c1 [Compound 103] | < 10 | < 1 | > 70 | – | < 10 | – | – | – | – | – | –
Cn1c(NCc2ccc(Oc3ccc(Cl)cn3)cc2)nc2ccc(NC3COC3)cc21 [Compound 211] | < 10 | < 1 | 40 to 70 | – | < 10 | – | – | reduced | significantly reduced | significantly reduced | –
Cn1c(NCc2ccc(Oc3ccc(C(F)(F)F)nc3)cc2)nc2ccc(NC3COC3)cc21 [Compound 226] | < 10 | < 1 | > 70 | – | < 10 | – | – | – | – | – | –
CN(C)c1nc2ccc(N)cc2n1CCOc1ccc(OC(F)(F)F)cc1 [Compound 44] | > 20 | < 1 | 40 to 70 | > 133 | < 10 | – | – | – | – | – | –
CC(C)Nc1ccc2[nH]c(NCc3ccc(Oc4ccccc4)cc3)nc2c1 [Compound 95] | – | < 1 | > 70 | > 137.5 | < 10 | < 1 | do not have an inhibitory effect | – | – | – | –
Nc1ccc2c(c1)nc(N)n2CCOc1ccc(OC(F)(F)F)cc1 [Compound 49] | 10 to 20 | > 10 | – | – | < 10 | – | – | – | – | – | 1 to 20
Nc1ccc2[nH]c(N3CCC(Oc4ccc(OC(F)(F)F)cc4)C3)nc2c1 (centres unmarked) [Compound 54] | < 10 | < 1 | > 70 | – | < 10 | – | – | – | – | – | –
Nc1ccc2nc(N)n(Cc3ccc(Oc4ccc(Cl)cn4)cc3)c2c1 [Compound 195] | < 10 | < 1 | < 40 | – | < 10 | – | – | – | – | – | –
Nc1ccc2[nH]c(NCc3ccc(Oc4ccc(Cl)cc4)cn3)nc2c1 [Compound 14] | < 10 | < 1 | – | – | < 10 | – | – | – | – | – | < 1
FC(F)(F)Oc1ccc(OC2CCN(c3ccc4nc(N5CCCC5)[nH]c4c3)C2)cc1 (centres unmarked) [Compound 99] | > 20 | < 1 | > 70 | – | < 10 | – | – | – | – | – | –
Nc1ccc2nc(N)n(CCOc3ccc(OC(F)(F)F)cc3)c2c1 [Compound 48] | < 10 | < 1 | – | – | < 10 | – | – | – | – | – | 1 to 20
